Data taken from PubChem BioAssay (NCI).
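Method: 48-hour compound exposure of cells in 96-well plates, five concentrations, linear interpolation of endpoints. The concentration for 50% growth inhibition is given as GI50. TGI: concentration producing complete growth inhibition.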

Assays:
Assay in all cases: NCI tumour cell line growth inhibition, 48 h
OVCAR-4 ovarian = test system: OVCAR-4 ovarian
OVCAR-8 ovarian = test system: OVCAR-8 ovarian
KM20L2 colon = test system: KM20L2 colon
DMS 273 small cell lung = test system: DMS 273 small cell lung
U251 CNS = test system: U251 CNS
SW-620 colon = test system: SW-620 colon
UACC-257 melanoma = test system: UACC-257 melanoma
PC-3 prostate = test system: PC-3 prostate
LOX IMVI melanoma = test system: LOX IMVI melanoma
HCT-116 colon = test system: HCT-116 colon

Compound	TGI (OVCAR-4 ovarian)	TGI (OVCAR-8 ovarian)	TGI (KM20L2 colon)	TGI (DMS 273 small cell lung)	TGI (U251 CNS)	TGI (SW-620 colon)	TGI (UACC-257 melanoma)	TGI (PC-3 prostate)	TGI (LOX IMVI melanoma)	TGI (HCT-116 colon)	GI50 (OVCAR-4 ovarian)	GI50 (UACC-257 melanoma)	GI50 (OVCAR-8 ovarian)	GI50 (PC-3 prostate)	GI50 (LOX IMVI melanoma)	GI50 (U251 CNS)	GI50 (SW-620 colon)	GI50 (HCT-116 colon)
COc1cc(/C=C(\NC(=O)c2ccccc2)c2nc3ncncc3[nH]2)cc(OC)c1OC	> 100 µM	> 100 µM	> 100 µM	> 100 µM	> 100 µM	> 100 µM												
O=C(Nc1ccccc1)OC1OC(COC(=O)c2ccccc2)C(OC(=O)c2ccccc2)C1OS(=O)(=O)c1ccc([N+](=O)[O-])cc1 (configuration not stated)	> 100 µM	> 100 µM			> 100 µM	> 100 µM	> 100 µM	> 100 µM	> 100 µM	> 100 µM								
Fc1ccc(-c2nn3ccccc3c2-c2ccncc2)cc1	> 25 µM	> 25 µM			> 25 µM	> 25 µM	> 25 µM	> 25 µM	> 25 µM	> 25 µM	> 25 µM	> 25 µM	> 25 µM	> 25 µM	> 25 µM	> 25 µM	> 25 µM	> 25 µM
COc1ccccc1/C=C\C(=O)C1COCN1 (configuration not stated)	53.2 µM	30.6 µM			28.1 µM	19.4 µM	34 µM	29.1 µM	38.1 µM	> 100 µM								
CCc1cc2c(O)c(c1)Cc1cc(CC)cc(c1O)Cc1cc(CC)cc(c1O)Cc1cc(CC)cc(c1O)Cc1cc(CC)cc(c1O)Cc1cc(CC)cc(c1O)Cc1cc(CC)cc(c1O)C2	> 100 µM	> 100 µM	> 100 µM	> 100 µM	> 100 µM	> 100 µM	> 100 µM			> 100 µM								
COc1ccc(/C=C/C(=O)c2c(-c3ccccc3)nn(C)c(=O)c2N2CCOCC2)cc1		> 100 µM	> 100 µM	> 100 µM	> 100 µM	> 100 µM			> 100 µM	> 100 µM								
CCOc1ccc(C(C[N+](=O)[O-])Sc2ccccc2N)cc1 (configuration not stated)	26 µM	22.6 µM			10.6 µM	4.45 µM	16.7 µM	17.3 µM	2.92 µM	3.36 µM	13 µM	4.6 µM	8.97 µM	4.02 µM	1.44 µM	2.96 µM	1.73 µM	1.7 µM
Cc1ccc(/C=C/C(=O)c2sc(-n3nc(-c4ccccc4)cc3-c3ccccc3)nc2C)cc1		> 100 µM	> 100 µM	> 100 µM	> 100 µM	> 100 µM	> 100 µM		> 100 µM									
Oc1[nH]c2ccccc2c1/C=c1/ccc2c(c1)N=C(c1ccc(C(F)(F)F)cc1)N=2	15.8 µM	20.3 µM			12.8 µM	5.55 µM	21.5 µM	3.75 µM	5.37 µM	12.3 µM	3.94 µM	7.4 µM	5.94 µM	1.54 µM	1.82 µM	2.83 µM	1.92 µM	1.37 µM
COc1ccc(C(=O)c2cc3c(N)c(C(=O)Nc4cccc(Br)c4C)sc3nc2C)cc1	> 100 µM	> 100 µM			> 100 µM	> 100 µM	> 100 µM	> 100 µM	> 100 µM		0.474 µM	> 100 µM	0.205 µM	0.0624 µM	0.0615 µM	0.0518 µM	0.046 µM	0.038 µM
